Laboratory results reported in ChEMBL document CHEMBL1155458, “Synthesis, inhibitory activity of cholinesterases, and neuroprotective profile of novel 1,8-naphthyridine derivatives” (J Med Chem, 2010).

How the values were obtained:
[1] = target: Acetylcholinesterase (Electrophorus electricus, UniProt O42275)
Description: Inhibition of electric eel AChE by Ellman's method

[2] = test system: SH-SY5Y; assay: Neuroprotective activity in human SH-SY5Y cells assessed as protection against rotenone/oligomycin A-induced cell death at 1 uM after 24 hrs by LDH release assay; format: functional
[3] = test system: SH-SY5Y; assay: Cytotoxicity against human SH-SY5Y cells assessed as LDH release at 1 uM after 24 hrs by spectrophotometry (reference value: 17.7%); format: cell-based
[4] = target: Cholinesterase (Equus caballus, UniProt P81908)
Cholinesterase, sequence (P81908 whole entry): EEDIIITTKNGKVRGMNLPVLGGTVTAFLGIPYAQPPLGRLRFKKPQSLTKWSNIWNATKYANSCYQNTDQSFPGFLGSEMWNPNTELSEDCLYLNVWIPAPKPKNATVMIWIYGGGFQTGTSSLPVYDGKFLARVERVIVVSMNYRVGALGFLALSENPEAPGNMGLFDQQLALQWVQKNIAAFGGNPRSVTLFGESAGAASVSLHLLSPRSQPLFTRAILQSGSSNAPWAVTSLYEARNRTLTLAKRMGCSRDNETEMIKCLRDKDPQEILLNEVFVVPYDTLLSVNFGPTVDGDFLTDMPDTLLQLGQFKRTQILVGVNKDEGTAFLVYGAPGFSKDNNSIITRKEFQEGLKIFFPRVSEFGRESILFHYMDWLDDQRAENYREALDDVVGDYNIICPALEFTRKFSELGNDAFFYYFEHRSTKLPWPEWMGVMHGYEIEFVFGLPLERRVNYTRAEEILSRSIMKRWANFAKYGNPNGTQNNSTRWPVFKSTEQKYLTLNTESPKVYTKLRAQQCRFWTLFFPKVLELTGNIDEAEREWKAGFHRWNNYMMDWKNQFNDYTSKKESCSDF
Description: Inhibition of equine serum BuChE by Ellman's method

[5] = target: T1, Acetylcholinesterase (Homo sapiens, UniProt P22303)
T1 sequence (P22303 whole entry): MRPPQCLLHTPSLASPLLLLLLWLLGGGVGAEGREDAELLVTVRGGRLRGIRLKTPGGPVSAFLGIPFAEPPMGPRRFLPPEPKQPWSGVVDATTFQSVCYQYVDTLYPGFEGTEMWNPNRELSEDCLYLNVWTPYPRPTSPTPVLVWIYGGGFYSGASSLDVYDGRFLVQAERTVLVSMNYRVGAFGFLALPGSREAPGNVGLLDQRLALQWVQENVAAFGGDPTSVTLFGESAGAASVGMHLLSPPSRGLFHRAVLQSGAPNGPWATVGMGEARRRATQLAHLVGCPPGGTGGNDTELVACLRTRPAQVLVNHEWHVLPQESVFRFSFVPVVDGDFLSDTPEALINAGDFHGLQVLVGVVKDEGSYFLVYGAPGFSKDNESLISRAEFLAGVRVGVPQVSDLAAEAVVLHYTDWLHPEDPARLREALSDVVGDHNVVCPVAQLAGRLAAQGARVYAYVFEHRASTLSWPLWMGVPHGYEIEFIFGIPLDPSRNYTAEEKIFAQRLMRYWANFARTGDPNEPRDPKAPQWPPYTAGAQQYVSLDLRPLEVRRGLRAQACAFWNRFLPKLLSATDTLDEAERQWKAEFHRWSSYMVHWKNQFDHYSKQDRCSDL
Description: Inhibition of AChE in human erythrocytes by Ellman's method

[6] = target: T2, Acetylcholinesterase (Bos taurus, UniProt P23795); assay: biochemical
T2 sequence (P23795 whole entry): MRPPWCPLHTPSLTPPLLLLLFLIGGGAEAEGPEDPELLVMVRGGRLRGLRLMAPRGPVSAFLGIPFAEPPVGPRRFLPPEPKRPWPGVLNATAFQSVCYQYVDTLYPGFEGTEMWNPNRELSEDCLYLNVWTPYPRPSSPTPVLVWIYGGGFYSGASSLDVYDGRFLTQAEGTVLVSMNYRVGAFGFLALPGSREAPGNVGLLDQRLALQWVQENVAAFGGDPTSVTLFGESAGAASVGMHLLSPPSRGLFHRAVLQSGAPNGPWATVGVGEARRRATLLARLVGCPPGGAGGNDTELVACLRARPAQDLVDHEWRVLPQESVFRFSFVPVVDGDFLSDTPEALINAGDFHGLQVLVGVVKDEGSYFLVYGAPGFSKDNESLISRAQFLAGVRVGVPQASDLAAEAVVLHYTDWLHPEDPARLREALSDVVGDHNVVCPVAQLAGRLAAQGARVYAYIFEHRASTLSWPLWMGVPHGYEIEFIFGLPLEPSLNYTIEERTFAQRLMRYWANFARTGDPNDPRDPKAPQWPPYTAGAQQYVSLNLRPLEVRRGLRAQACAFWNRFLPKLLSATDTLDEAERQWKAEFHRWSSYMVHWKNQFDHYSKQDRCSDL
Description: Displacement of propidium iodide from AChE in bovine erythrocytes after 15 mins by fluorescence plate reader

[7] = target: T3, Acetylcholinesterase (Bos taurus) (UniProt P23795); assay: Displacement of propidium iodide from AChE in bovine erythrocytes at 10 uM after 15 mins by fluorescence plate reader; format: cell-based
T3 sequence (whole entry): T2 sequence (P23795 whole entry)

[8] = test system: SH-SY5Y; assay: Neuroprotective activity in human SH-SY5Y cells assessed as protection against okadaic acid-induced cell death at 1 uM after 24 hrs by MTT assay; format: functional
[9] = target: T3, Acetylcholinesterase (Bos taurus); settings: 1 mM
Description: Displacement of propidium iodide from AChE in bovine erythrocytes at 1 mM after 15 mins by fluorescence plate reader

[10] = test system: SH-SY5Y; assay: Neuroprotective activity in human SH-SY5Y cells assessed as protection against amyloid beta(1-42)-induced cell death at 10 uM after 24 hrs by MTT assay; format: functional
[11] = species: Rattus norvegicus; assay: Prevention of okadaic acid-induced inhibition of PP2A in rat brain cortex assessed as increase in inorganic phosphorus release at 10 uM after 1 hr by malachite green assay relative to control; format: tissue-based; set-up: scale not given: the % may be the effect or the level left
[12] = test system: Hippocampus; assay: Neuroprotective activity in isolated rat brain hippocampal slices assessed as protection against oxygen and glucose deprivation-induced cell death at 30 uM after 24 hrs by MTT assay; format: functional
[13] = test system: SH-SY5Y; assay: Neuroprotective activity in human SH-SY5Y cells assessed as protection against amyloid beta(1-42)-induced cell death after 24 hrs by MTT assay; format: functional, cell-based
[14] = species: Rattus norvegicus; assay: Prevention of okadaic acid-induced inhibition of PP2A in rat brain cortex assessed as increase in inorganic phosphorus release at 1 uM after 1 hr by malachite green assay relative to control; format: tissue-based; set-up: scale not given: the % may be the effect or the level left
[15] = test system: Hippocampus; assay: Neuroprotective activity in isolated rat brain hippocampal slices assessed as protection against oxygen and glucose deprivation-induced cell death after 24 hrs by MTT assay; format: functional, tissue-based
[16] = species: Rattus norvegicus; assay: Prevention of okadaic acid-induced inhibition of PP2A in rat brain cortex assessed as increase in inorganic phosphorus release after 1 hr by malachite green assay relative to control; format: tissue-based
[17] = target: T1, Acetylcholinesterase; assay: Inhibition of AChE (unknown orign) by Lineweaver-Burke plot
[18] = test system: SH-SY5Y; assay: Neuroprotective activity in human SH-SY5Y cells assessed as protection against amyloid beta(1-42)-induced cell death at 1 uM after 24 hrs by MTT assay; format: functional

Acetylcholinesterase (Electrophorus electricus, UniProt O42275), sequence (O42275 whole entry): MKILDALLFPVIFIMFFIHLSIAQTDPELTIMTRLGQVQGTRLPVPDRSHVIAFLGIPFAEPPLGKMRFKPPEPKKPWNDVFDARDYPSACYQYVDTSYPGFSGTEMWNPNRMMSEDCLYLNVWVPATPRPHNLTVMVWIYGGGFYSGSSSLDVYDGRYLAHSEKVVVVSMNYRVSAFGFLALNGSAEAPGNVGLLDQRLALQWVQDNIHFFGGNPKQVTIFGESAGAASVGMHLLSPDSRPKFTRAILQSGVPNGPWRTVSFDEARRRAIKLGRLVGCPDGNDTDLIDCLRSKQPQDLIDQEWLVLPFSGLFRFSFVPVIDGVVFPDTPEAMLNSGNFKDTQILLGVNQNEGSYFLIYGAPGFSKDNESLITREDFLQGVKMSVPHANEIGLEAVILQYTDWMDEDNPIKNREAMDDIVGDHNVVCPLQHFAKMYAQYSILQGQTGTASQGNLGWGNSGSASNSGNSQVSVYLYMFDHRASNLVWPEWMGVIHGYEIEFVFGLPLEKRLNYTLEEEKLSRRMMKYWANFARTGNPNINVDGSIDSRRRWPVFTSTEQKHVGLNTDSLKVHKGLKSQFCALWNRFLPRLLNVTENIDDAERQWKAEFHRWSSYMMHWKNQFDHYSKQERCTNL

SMILES	IC50 [1] [nM]	Activity [2] [%]	Activity [3] [%]	IC50 [4] [nM]	IC50 [5] [nM]	IC50 [6] [nM]	inhibition [7] [%]	Activity [8] [%]	further results
COC(=O)c1cc2c(N)c3c(nc2nc1C)CCCCC3	360	36.1	20.4	490	2000	360	11	38.7	–
COc1ccc2[nH]cc(CCNC(C)=O)c2c1 [MELATONIN]	–	33.8	–	–	–	–	–	–	–
C=CC[N+](C)(C)c1ccc(CCC(=O)CCc2ccc([N+](C)(C)CC=C)cc2)cc1	–	–	–	–	–	–	–	–	inhibition [9]: 29%
COc1ccc2c3c1O[C@H]1C[C@@H](O)C=C[C@@]31CCN(C)C2 [GALANTAMINE]	–	–	–	–	–	–	–	0	–
CCOC(=O)c1c(C)nc2nc3c(c(N)c2c1-c1ccccc1)CCCC3	800	26.8	–	–	–	–	–	22.1	–
CCOC(=O)c1cc2c(N)c3c(nc2nc1C)CCCCCC3	400	32.6	12.7	5300	1800	400	10	33.8	–
CC(=O)N[C@@H](CS)C(=O)O [ACETYLCYSTEINE]	–	33.4	–	–	–	–	–	–	–
COC(=O)c1cc2c(N)c3c(nc2nc1C)CCCC3	93	25.8	11.6	3400	1000	93	16	44.8	–
COC(=O)c1cc2c(N)c3c(nc2nc1C)CCCCCC3	250	42.3	21.6	4070	1800	250	16	26.2	–
CCOC(=O)c1cc2c(N)c3c(nc2nc1C)CCCCC3	310	31.1	19.9	2100	2000	310	10	28.9	–
COC(=O)c1cc2c(N)c3c(nc2nc1C)CCC3	120	37.5	22.1	5000	1900	120	10	36.5	–
CCOC(=O)c1cc2c(N)c3c(nc2nc1C)CCCC3	–	48.4	20.9	–	–	60	10	75	Activity [10]: 10%; Activity [11]: 91%; Activity [12]: 65.5%; Activity [13]: Dose-dependent effect; Activity [14]: 77%; Activity [15]: Dose-dependent effect; EC50 [15]: 6000 nM; Activity [16]: Dose-dependent effect; Ki [17]: 24 nM; Activity [18]: 54%
C=C1[C@@H](O)[C@@H]2O[C@]3(CC[C@H](/C=C/[C@@H](C)[C@@H]4CC(C)=C[C@@]5(O[C@H](C[C@@](C)(O)C(=O)O)CC[C@H]5O)O4)O3)CC[C@H]2O[C@@H]1[C@@H](O)C[C@H](C)[C@H]1O[C@@]2(CCCCO2)CC[C@H]1C [OKADAIC ACID]	–	–	–	–	–	–	–	80.5	–
CCOC(=O)c1cc2c(N)c3c(nc2nc1C)CCC3	350	28.7	12.3	39000	2100	350	20	39.5	–
